Measured values as given in patent publication US6362192B1, “2-(Pyrazolyloxy) -pyridin-3-ylacetic acid derivatives, agents containing the same and use thereof against noxious fungi and animal parasites” (BASF Aktiengesellschaft, priority 1998, dated 2002).

Experiments:
Type in all cases: in vivo
[1] = system: Plasmopara viticola; assay: Long-term activity against Plasmopara viticola on grapevines; conditions: 16 ppm, grapevines cv. Müller-Thurgau, inoculated 7 days after spraying; untreated control 75%
Excerpt: 2) Long-term Activity Against Plasmopara viticola Leaves of potted grapevines cv. “Müller-Thurgau” were sprayed to runoff point with an aqueous active compound preparation which had been prepared from a stock solution comprising 10% of active compound, 63% of cyclohexanone and 27% of emulsifier. To assess the persistency of the substances, the plants were kept for 7 days in a greenhouse after the spray coating had dried on. Only then were the leaves inoculated with an aqueous zoospore suspension of Plasmopara viticola. The grapevines were then initially kept in a water vapor-saturated chamber at 24° C. for 48 hours and then in a greenhouse at 20-30° C. for 5 days. After this period of time, the plants were once more kept in a humid chamber for 16 hours to promote sporangiophore eruption. The extent of the infection on the undersides of the leaves was then assessed visually.

[2] = system: pyricularia oryzae; conditions: 16 ppm, rice seedlings cv. Tai-Nong 67, inoculated the next day, assessed after 6 days; untreated control 85%
[3] = system: Erysiphe graminis forma specialis tritici; assay: Protective activity against Erysiphe graminis var. tritici (powdery mildew of wheat); conditions: 16 ppm, sprayed 24 h before inoculation, seedlings cv. Frühgold, assessed after 7 days; untreated control 80%
Method: 1) Protective Activity Against Erysiphe graminis var. tritici (Powdery Mildew of Wheat) Leaves of potted […] seedlings cv. “Frühgold” were sprayed to runoff point with an aqueous active compound preparation which had been prepared from a stock solution comprising 10% of active compound, 63% of cyclohexanone and 27% of emulsifier, and, 24 hours after the spray coating had dried on, dusted with spores of powdery mildew of wheat (Erysiphe graminis forma specialis tritici). The test plants were subsequently placed in a greenhouse at from 20 to 22° C. and a relative atmospheric humidity of 75 to 80%. After 7 days, the extent of mildew development was determined visually as % infection of the total leaf area.

Which results are given for `CO/C=C(/C(=O)OC)c1cccnc1Oc1ccn(-c2ccc(Cl)cc2)n1` [I.3, Methyl methoxy-[2-(1-(4-chlorophenyl)-3-pyrazolyloxy)pyridin-3-yl]acrylate]?
infection on the undersides of the leaves [1]: no infestation; infestation on the leaves [2]: 15%; infection (mildew development as % infection of the total leaf area) [3]: 5%
